Data on 3 molecules can be found in patent US12612395B2, “Rocaglate derivatives and uses thereof” (TRUSTEES OF BOSTON UNIVERSITY, priority 2023, dated 2026).

“And” between values parts separate entries of the source, which are not always exact repeats. Identical values can stand only once. Like-named read-outs stand apart in the source and are kept apart here.

By EC50 is commonly meant the midpoint of the concentration-response curve.

One series concerns GBM0308 CSCs. Nature of the series: Dose-response killing of GBM CSCs (PI/Hoechst, Celigo cytometer). The settings on record: for CSCs Max. observed efficacy (% dead cells): up to 10 μM. It counts as cell-based. The text has this:
(§1) The inventors first evaluated a cohort of seven rocaglate translation inhibitors (1, 3-7, and 9, FIG. 1A and Table 1, compounds 2 and 8 were not tested due to unavailability). To assay for compounds that selectively affect GBM CSCs, the inventors employed the patient-derived tumor-initiating cell (TIC) cell line […] that forms neurospheres (consisting exclusively of tumor-initiating cells or CSCs) when cultured in neurobasal (NBE) medium. Upon exposure to serum and growth factor withdrawal, however, the cell line differentiates, acquires a flattened morphology, and forms a non-CSC population.^20 Thus, compounds can be tested in parallel to assess their effect on GBM CSCs vs. GBM non-CSCs as separate populations with a clean and robust response. This approach has been previously used to perform RNAi-based genetic screens to identify modulators of CSCs.^20 In this study, GBM0308 cells, cultured in stem cell conditions to form CSCs or in medium containing serum to induce differentiation into a non-CSC population, were treated in parallel with compounds at varying doses. Three days post-treatment, propidium iodide (PI) and Hoechst staining were performed and quantified using a Celigo image cytometer. Hoechst dye stained all […] nucleated cells, while PI exclusively stained dead cells. Cell viability and the percentage of cell death were then determined.
(§2) Cell Culture: Glioblastoma stem cell lines GBM0308, BT145, and BT112 were cultured in neurobasal (NBE medium) containing N-2 and B-27 supplements, EGF, bFGF, L-glutamine, and Penicillin-Streptomycin), as described previously.^19 Adherent GBM cells were cultured in serum-containing DMEM media (Invitrogen) supplemented with 10% fetal bovine serum (Corning Cellgro™). Cells were incubated at 37° C. and 5% CO2 to allow neurosphere formation. For seeding and subculturing, the neurospheres were gently trypsinized with 0.025% trypsin to form a single-cell suspension.
(§3) Dose-Response Testing in GBM Cells: Briefly, on day 1, cells were seeded in triplicate. For CSCs, 1500 cells/well were plated in a low attachment 96-well plate with NBE media and incubated for 3 days at 37° C. and 5% CO2 to allow the formation of neurospheres. For non-CSCs, 3000 cells/well were plated in a 96-well plate with DMEM media supplemented with 10% FBS. Similarly, the assay plates were also incubated for the same duration. Compound treatments started on day 4. Each compound was resuspended in DMSO and then diluted to different concentrations in media to a final concentration of DMSO less than 1%. The compounds were added at concentrations of 10, 3.3, 1.11, 0.37, 0.12, 0.041, 0.013, and 0.004 µM, respectively. DMSO-treated cells served as a control. After 72 h incubation with the compounds, fluorescent stains, propidium iodide, and Hoechst 33342 (Life Technologies, Carlsbad, CA), were used to stain the GBM cells to determine cell viability. A staining solution in 1×PBS was prepared by mixing PI and Hoechst 33342 to working concentrations of 2.5 μM and 20 μM, respectively. 20 μL of this staining solution was added per well, and plates were incubated at 37° C. and 5% CO2 for 60 min. After incubation, plates were read by Celigo imaging cytometer using an inbuilt Celigo application; Cell Viability (Dead+Total). For the viability measurement, the total number of neurospheres/cells and dead neurospheres/cells in each well were counted by the cytometer. The percentage of PI+ cells was normalized to DMSO and plotted against the drug concentration to calculate the EC50 with a four-parameter, variable-slope dose-response curve with an upper constraint of <100% dead cells and a lower constraint of =0% dead cells (GraphPad Prism v.10.0.0). For all dose response experiments, the experimental maximal efficacy (maximum observed % cell death) is reported. Relative EC50 values are reported for all compounds killing >50% of cells.

Another series relates to GBM0308 non-CSCs. Nature of the series: Dose-response killing of GBM non-CSCs (PI/Hoechst, Celigo cytometer). It is filed as cell-based. The settings on record: GBM0308 non-CSCs; for Non-CSCs Max. observed efficacy (% dead cells): Table 1, up to 10 μM.
From the text: as §1, §2, §3

The test system of series [1] is cap-dependent translation (FF cistron of FF-HCV-Ren). Nature of the series: In vitro translation assay, bicistronic FF-HCV-Ren mRNA reporter in Krebs-2 extracts. It is filed as biochemical. The text has this: Given these observations, the inventors next sought to interrogate the effects of compound (−)-20 in secondary assays for both eIF4A and DDX3 engagement. […] While inherent differences between the FP assay conditions (e.g. probe affinity, protein mobility in FP buffer) preclude direct comparison of absolute AmP values across the two different proteins, the inventors noted that relative anti-CSC potencies for these compounds ((−)-7>(−)-5≈(−)-20) were similar to their relative degrees of clamping for DDX3X and eIF4A1. To follow up on these findings, the inventors performed in vitro translation experiments using a bicistronic mRNA reporter construct FF-HCV-Ren, where translation of the firefly luciferase (FF) cistron is cap-dependent, while translation of the Renilla luciferase (HCV-Ren) cistron is driven off an HCV-IRES, rendering translation of this cistron cap-independent.
In vitro translation assays: In vitro translations were performed using 4 ng/μL of bicistronic FF-HCV-Ren/pA51 reporter mRNA and the indicated compound concentrations in Krebs-2 extracts at 30° C. for 1 h as described previously.^S10 Cap-dependent FLuc and cap-independent RLuc activities were assessed on a Berthold Lumat LB 9507 luminometer (Berthold Technologies). Curves were determined using a non-linear regression model on GraphPad Prism 8.4.0.

Setting [2] is: FF cistron, Krebs-2 extracts, 30° C., 1 h, read-out: cap-dependent translation inhibition EC50.

In the case of `CONC(=O)[C@H]1[C@@H](O)[C@@]2(O)c3c(OC)cc(OC)cc3O[C@@]2(c2ccc(Br)cc2)[C@@H]1c1ccccc1` [(−)-7, SDS-1-021], the “CSCs Max. observed efficacy (% dead cells)” value in the series with GBM0308 CSCs (Table 1, GBM0308 CSCs, 72 h) was 92%. In addition, the EC50 with GBM0308 CSCs (Table 1, GBM0308 CSCs, 72 h treatment, relative EC50, given for compounds causing at least 50% cell death, read-out: CSCs EC50) is 7 nM. Moreover, in the series with GBM0308 non-CSCs (72 h), the “Non-CSCs Max. observed efficacy (% dead cells)” value was 31%.

Take `CONC(=O)[C@H]1[C@@H](O)[C@@]2(O)c3c(OC)cc(OC)cc3O[C@@]2(c2ccc(OC)cc2)[C@@H]1c1ccccc1` [(−)-5, CR-1-31b, reference compound]: the EC50 in the series on GBM0308 CSCs (GBM0308 CSCs, read-out: CSC EC50) is 36 nM; in series [1] (setting [2]) it was 215 nM and ~200 nM. The “CSCs Max. observed efficacy (% dead cells)” value in the series with GBM0308 CSCs (Table 1, GBM0308 CSCs, 72 h) is on record as 91%. The “Non-CSCs Max. observed efficacy (% dead cells)” value with GBM0308 non-CSCs (72 h) came to 22%.

Turning to `COc1cc(OC)c2c(c1)O[C@@]1(c3ccc(Br)cc3)[C@H](c3ccccc3)[C@@H](C(=O)NS(=O)(=O)N(C)C)[C@@H](O)[C@@]21O` [(−)-20, (1R,2R,3S,3aR,8bS)-3a-(4-bromophenyl)-N—(N,N-dimethylsulfamoyl)-1,8b-dihydroxy-6,8-dimethoxy-3-phenyl-2,3,3a,8b-tetrahydro-1H-cyclopenta[b]benzofuran-2-carboxamide], the “fold by which potency of CSC death is higher than effects on cap-dependent translation” value with GBM0308 CSCs (CSC EC50 vs translation EC50) is reported as roughly 20 fold. The EC50 with GBM0308 CSCs (Homo sapiens, 72 h, Table 2, GBM0308 CSCs, 72 h treatment, relative EC50, read-out: CSCs EC50) was 45 nM; in series [1] (setting [2]), 937 nM; in series [1] (approximate value, read-out: translation inhibition EC50) it was roughly 1000 nM. Further, the Emax turned out to be 93% with GBM0308 CSCs (Homo sapiens, 72 h, read-out: CSCs Max. observed efficacy (% dead cells), Table 2, GBM0308 CSCs, 72 h, highest tested concentration 10 μM) and 26% in the series with GBM0308 non-CSCs (Homo sapiens, Table 2, 72 h, highest tested concentration 10 μM, read-out: Non-CSCs Max. observed efficacy (% dead cells)). In addition, the “cytotoxic activity against non-CSCs, in words” value in the series with GBM0308 non-CSCs is listed as “limited detectable effects”.
